Measured values as given in ChEMBL document CHEMBL1156204, “Spectacular modification of Gambogic acid on microwave irradiation in methanol: isolation and structure identification of two products with potent anti-tumor activity” (Bioorg Med Chem Lett, 2010).
Calls of active or inactive are those of the source. The rule behind the calls is not given here.

Assays:
HepG2 [1] = assay: Cytotoxicity against human HepG2 cells after 48 hrs by MTT assay; assay type: functional, cell-based; conditions: HepG2, 48 h
[2] = Cytotoxicity against human BGC803 cells after 48 hrs by MTT assay; assay type: functional, cell-based; conditions: BGC803, 48 h
SGC-7901 = assay: Cytotoxicity against human SGC7901 cells after 48 hrs by MTT assay; assay type: functional, cell-based; conditions: SGC-7901, 48 h
MCF7 = assay: Cytotoxicity against human MCF7 cells after 48 hrs by MTT assay; assay type: functional, cell-based; conditions: MCF7, 48 h
HepG2 [3] = assay: Effect on human HepG2 cell morphology assessed as cell elongation at 1.25 to 5 uM after 24 hrs by inverted-light microscopy; assay type: functional, cell-based
HepG2 [4] = assay: Effect on human HepG2 cell morphology assessed as induction of membrane blebbing at 1.25 to 5 uM after 24 hrs by inverted-light microscopy; assay type: functional, cell-based
HepG2 [5] = assay: Effect on human HepG2 cell morphology assessed as induction of cell shrinkage at 1.25 to 5 uM after 24 hrs by inverted-light microscopy; assay type: functional, cell-based
HepG2 [6] = assay: Effect on human HepG2 cell morphology assessed as formation of round cells at 1.25 to 5 uM after 24 hrs by inverted-light microscopy; assay type: functional, cell-based
HepG2 [7] = assay: Induction of necrosis in human HepG2 cells at 1.25 to 5 uM after 24 hrs by inverted-light microscopy; assay type: functional, cell-based
HepG2 [8] = assay: Effect on human HepG2 cell morphology assessed as cell elongation at 0.5 to 2 uM after 24 hrs by inverted-light microscopy; assay type: functional, cell-based
HepG2 [9] = assay: Effect on human HepG2 cell morphology assessed as induction of membrane blebbing at 0.5 to 2 uM after 24 hrs by inverted-light microscopy; assay type: functional, cell-based
HepG2 [10] = assay: Effect on human HepG2 cell morphology assessed as induction of cell shrinkage at 0.5 to 2 uM after 24 hrs by inverted-light microscopy; assay type: functional, cell-based
HepG2 [11] = assay: Effect on human HepG2 cell morphology assessed as formation of round cells at 0.5 to 2 uM after 24 hrs by inverted-light microscopy; assay type: functional, cell-based
HepG2 [12] = assay: Induction of necrosis in human HepG2 cells at 0.5 to 2 uM after 24 hrs by inverted-light microscopy; assay type: functional, cell-based
HepG2 [13] = assay: Induction of apoptosis in human HepG2 cells assessed as nuclear condensation at 1.25 to 5 uM after 24 hrs by DAPI staining-based fluorescence microscopy; assay type: functional, cell-based
HepG2 [14] = assay: Induction of apoptosis in human HepG2 cells assessed as nuclear condensation at 0.5 to 2 uM after 24 hrs by DAPI staining-based fluorescence microscopy; assay type: functional, cell-based
HepG2 [15] = assay: Induction of apoptosis in human HepG2 cells assessed as appearance of apoptotic bodies at 1.25 to 5 uM after 24 hrs by fluorescence microscopy; assay type: functional, cell-based
HepG2 [16] = assay: Induction of apoptosis in human HepG2 cells assessed as appearance of apoptotic bodies at 0.5 to 2 uM after 24 hrs by fluorescence microscopy; assay type: functional, cell-based
HepG2 [17] = assay: Induction of apoptosis in human HepG2 cells assessed as dead cells at 0.5 uM after 24 hrs using annexin-V and propidium iodide staining by flow cytometry; assay type: functional
HepG2 [18] = assay: Induction of apoptosis in human HepG2 cells assessed as late apoptotic cells at 0.5 uM after 24 hrs using annexin-V and propidium iodide staining by flow cytometry; assay type: functional
HepG2 [19] = assay: Induction of apoptosis in human HepG2 cells assessed as early apoptotic cells at 0.5 uM after 24 hrs using annexin-V and propidium iodide staining by flow cytometry; assay type: functional
HepG2 [20] = assay: Induction of apoptosis in human HepG2 cells assessed as viable cells at 0.5 uM after 24 hrs using annexin-V and propidium iodide staining by flow cytometry; assay type: functional; conditions: HepG2, 24 h, read-out: Activity
HepG2 [21] = assay: Induction of apoptosis in human HepG2 cells assessed as dead cells at 1 uM after 24 hrs using annexin-V and propidium iodide staining by flow cytometry; assay type: functional
HepG2 [22] = assay: Induction of apoptosis in human HepG2 cells assessed as late apoptotic cells at 1 uM after 24 hrs using annexin-V and propidium iodide staining by flow cytometry; assay type: functional
HepG2 [23] = assay: Induction of apoptosis in human HepG2 cells assessed as early apoptotic cells at 1 uM after 24 hrs using annexin-V and propidium iodide staining by flow cytometry; assay type: functional
HepG2 [24] = assay: Induction of apoptosis in human HepG2 cells assessed as viable cells at 1 uM after 24 hrs using annexin-V and propidium iodide staining by flow cytometry; assay type: functional; conditions: HepG2, 24 h, read-out: Activity
HepG2 [25] = assay: Induction of apoptosis in human HepG2 cells assessed as dead cells at 2 uM after 24 hrs using annexin-V and propidium iodide staining by flow cytometry; assay type: functional
HepG2 [26] = assay: Induction of apoptosis in human HepG2 cells assessed as late apoptotic cells at 2 uM after 24 hrs using annexin-V and propidium iodide staining by flow cytometry; assay type: functional
HepG2 [27] = assay: Induction of apoptosis in human HepG2 cells assessed as early apoptotic cells at 2 uM after 24 hrs using annexin-V and propidium iodide staining by flow cytometry; assay type: functional
HepG2 [28] = assay: Induction of apoptosis in human HepG2 cells assessed as viable cells at 2 uM after 24 hrs using annexin-V and propidium iodide staining by flow cytometry; assay type: functional; conditions: HepG2, 24 h, read-out: Activity
HepG2 [29] = assay: Induction of apoptosis in human HepG2 cells assessed as increase in bax expression at 0.5 to 2 uM after 24 hrs; assay type: functional, cell-based
HepG2 [30] = assay: Induction of apoptosis in human HepG2 cells assessed as decrease in procaspase-3 expression at 0.5 to 2 uM after 24 hrs; assay type: functional, cell-based
HepG2 [31] = assay: Induction of apoptosis in human HepG2 cells assessed as increase in active caspase-3 expression at 0.5 to 2 uM after 24 hrs; assay type: functional, cell-based
HepG2 [32] = assay: Induction of apoptosis in human HepG2 cells assessed as dead cells at 1.25 uM after 24 hrs using annexin-V and propidium iodide staining by flow cytometry; assay type: functional
HepG2 [33] = assay: Induction of apoptosis in human HepG2 cells assessed as late apoptotic cells at 1.25 uM after 24 hrs using annexin-V and propidium iodide staining by flow cytometry; assay type: functional
HepG2 [34] = assay: Induction of apoptosis in human HepG2 cells assessed as early apoptotic cells at 1.25 uM after 24 hrs using annexin-V and propidium iodide staining by flow cytometry; assay type: functional
HepG2 [35] = assay: Induction of apoptosis in human HepG2 cells assessed as viable cells at 1.25 uM after 24 hrs using annexin-V and propidium iodide staining by flow cytometry; assay type: functional; conditions: HepG2, 24 h, read-out: Activity
HepG2 [36] = assay: Induction of apoptosis in human HepG2 cells assessed as dead cells at 2.5 uM after 24 hrs using annexin-V and propidium iodide staining by flow cytometry; assay type: functional
HepG2 [37] = assay: Induction of apoptosis in human HepG2 cells assessed as late apoptotic cells at 2.5 uM after 24 hrs using annexin-V and propidium iodide staining by flow cytometry; assay type: functional
HepG2 [38] = assay: Induction of apoptosis in human HepG2 cells assessed as early apoptotic cells at 2.5 uM after 24 hrs using annexin-V and propidium iodide staining by flow cytometry; assay type: functional
HepG2 [39] = assay: Induction of apoptosis in human HepG2 cells assessed as viable cells at 2.5 uM after 24 hrs using annexin-V and propidium iodide staining by flow cytometry; assay type: functional; conditions: HepG2, 24 h, read-out: Activity
HepG2 [40] = assay: Induction of apoptosis in human HepG2 cells assessed as dead cells at 5 uM after 24 hrs using annexin-V and propidium iodide staining by flow cytometry; assay type: functional
HepG2 [41] = assay: Induction of apoptosis in human HepG2 cells assessed as late apoptotic cells at 5 uM after 24 hrs using annexin-V and propidium iodide staining by flow cytometry; assay type: functional
HepG2 [42] = assay: Induction of apoptosis in human HepG2 cells assessed as early apoptotic cells at 5 uM after 24 hrs using annexin-V and propidium iodide staining by flow cytometry; assay type: functional
HepG2 [43] = assay: Induction of apoptosis in human HepG2 cells assessed as viable cells at 5 uM after 24 hrs using annexin-V and propidium iodide staining by flow cytometry; assay type: functional; conditions: HepG2, 24 h, read-out: Activity
HepG2 [44] = assay: Induction of apoptosis in human HepG2 cells assessed as decrease in Bcl-2 expression at 1.25 to 5 uM after 24 hrs; assay type: functional, cell-based
HepG2 [45] = assay: Induction of apoptosis in human HepG2 cells assessed as decrease in procaspase-3 expression at 1.25 to 5 uM after 24 hrs; assay type: functional, cell-based

Row | Compound | IC50 (HepG2 [1]) [nM] | IC50 [2] [nM] | IC50 (SGC-7901) [nM] | IC50 (MCF7) [nM] | Activity (HepG2 [3]) | Activity (HepG2 [4]) | Activity (HepG2 [5]) | Activity (HepG2 [6]) | Activity (HepG2 [7]) | Activity (HepG2 [8]) | Activity (HepG2 [9]) | Activity (HepG2 [10]) | Activity (HepG2 [11]) | Activity (HepG2 [12]) | Activity (HepG2 [13]) | Activity (HepG2 [14]) | Activity (HepG2 [15]) | Activity (HepG2 [16]) | other results
1 | COC(=O)/C(C)=C\C[C@@]12OC(C)(C)[C@@H]3C[C@@H](C=C4C(=O)c5c(O)c(C6C[C@](C)(OC)CCC6=C(C)C)c6c(c5O[C@]431)CCC(C)(C)O6)C2=O (stereo partly drawn) | 1530 | 2010 | 1510 | 1240 | Active | Active | Active | Active | Active | Active | Active | Active | Active | Active | Active | Active | Active | Active | Activity (HepG2 [17]): 0.3%; Activity (HepG2 [18]): 1.3%; Activity (HepG2 [19]): 4.3%; viability at 0.5 µM (HepG2 [20]): 94%; Activity (HepG2 [21]): 0.9%; Activity (HepG2 [22]): 2.5%; Activity (HepG2 [23]): 12.9%; viability at 1 µM (HepG2 [24]): 83.7%; Activity (HepG2 [25]): 3.4%; Activity (HepG2 [26]): 8.1%; Activity (HepG2 [27]): 35%; viability at 2 µM (HepG2 [28]): 53.6%; Activity (HepG2 [29]): Active; Activity (HepG2 [30]): Active; Activity (HepG2 [31]): Active
2 | CC(C)=CCC[C@]1(C)C=Cc2c(O)c3c(c(CC=C(C)C)c2O1)O[C@]12C(=C[C@@H]4C[C@H]1C(C)(C)O[C@@]2(C/C=C(/C)C(=O)O)C4=O)C3=O [GAMBOGIC ACID] | 2400 | 1540 | 1470 | 500 | – | – | – | – | – | – | – | – | – | – | – | – | – | – | –
3 | COC(=O)/C(C)=C\C[C@@]12OC(C)(C)[C@@H]3C[C@@H](C=C4C(=O)c5c(O)c6c(c(CC=C(C)C)c5O[C@]431)O[C@]1(C)CCC(=C(C)C)C6C1)C2=O | 1960 | 1450 | 2150 | 1880 | Active | Active | Active | Active | Active | Active | Active | Active | Active | Active | Active | Active | Active | Active | Activity (HepG2 [32]): 0.4%; Activity (HepG2 [33]): 4%; Activity (HepG2 [34]): 5.7%; viability at 1.25 µM (HepG2 [35]): 89.8%; Activity (HepG2 [36]): 1.4%; Activity (HepG2 [37]): 4.1%; Activity (HepG2 [38]): 13.6%; viability at 2.5 µM (HepG2 [39]): 80.9%; Activity (HepG2 [40]): 1.8%; Activity (HepG2 [41]): 4.4%; Activity (HepG2 [42]): 20.7%; viability at 5 µM (HepG2 [43]): 73.2%; Activity (HepG2 [44]): Active; Activity (HepG2 [45]): Active
4 | COC(=O)/C(C)=C\C[C@@]12OC(C)(C)[C@@H]3C[C@@H](C=C4C(=O)c5c(O)c6c(c(CC=C(C)C)c5O[C@]431)O[C@](C)(CCC=C(C)C)C=C6)C2=O [METHYL GAMBOGATE] | 2530 | 1240 | 790 | 520 | – | – | – | – | – | – | – | – | – | – | – | – | – | – | –
